What was measured:
Format in all cases: functional
[1] = Growth inhibition of human OVCAR8 cells at 10 uM after 48 hrs by sulforhodamine B assay; conditions: OVCAR-8, 48 h, values are per cent of control
[2] = Growth inhibition of human UACC62 cells at 10 uM after 48 hrs by sulforhodamine B assay; conditions: UACC-62, 48 h, values are per cent of control
[3] = Growth inhibition of human HCT116 cells at 10 uM after 48 hrs by sulforhodamine B assay; conditions: HCT-116, 48 h, values are per cent of control
[4] = Growth inhibition of human DU145 cells at 10 uM after 48 hrs by sulforhodamine B assay; conditions: DU-145, 48 h, values are per cent of control
[5] = Growth inhibition of human SW620 cells at 10 uM after 48 hrs by sulforhodamine B assay; conditions: SW-620, 48 h, values are per cent of control
[6] = Growth inhibition of human RXF393 cells at 10 uM after 48 hrs by sulforhodamine B assay; conditions: RXF 393, 48 h, values are per cent of control
[7] = Growth inhibition of human COLO205 cells at 10 uM after 48 hrs by sulforhodamine B assay; conditions: COLO 205, 48 h, values are per cent of control
[8] = test system: MDA-MB-435; experiment: Growth inhibition of human MDA-MB-435 cells at 10 uM after 48 hrs by sulforhodamine B assay; conditions: MDA-MB-435, 48 h, values are per cent of control
[9] = test system: A549; experiment: Growth inhibition of human A549/ATCC cells at 10 uM after 48 hrs by sulforhodamine B assay; conditions: A549, 48 h, values are per cent of control
[10] = test system: SN12C; experiment: Growth inhibition of human SN12C cells at 10 uM after 48 hrs by sulforhodamine B assay; conditions: values are per cent of control
[11] = Growth inhibition of human SNB75 cells at 10 uM after 48 hrs by sulforhodamine B assay; conditions: SNB-75, 48 h, values are per cent of control
[12] = Growth inhibition of human SF295 cells at 10 uM after 48 hrs by sulforhodamine B assay; conditions: SF-295, 48 h, values are per cent of control
[13] = test system: HT-29; experiment: Growth inhibition of human HT-29 cells at 10 uM after 48 hrs by sulforhodamine B assay; conditions: HT-29, 48 h, values are per cent of control
[14] = Growth inhibition of human SNB19 cells at 10 uM after 48 hrs by sulforhodamine B assay; conditions: SNB-19, 48 h, values are per cent of control
[15] = test system: NCI-H226; experiment: Growth inhibition of human NCI-H226 cells at 10 uM after 48 hrs by sulforhodamine B assay; conditions: NCI-H226, 48 h, values are per cent of control
[16] = Growth inhibition of human OVCAR4 cells at 10 uM after 48 hrs by sulforhodamine B assay; conditions: OVCAR-4, 48 h, values are per cent of control
[17] = Growth inhibition of human HOP62 cells at 10 uM after 48 hrs by sulforhodamine B assay; conditions: HOP-62, 48 h, values are per cent of control
[18] = Growth inhibition of human IGROV1 cells at 10 uM after 48 hrs by sulforhodamine B assay; conditions: IGROV-1, 48 h, values are per cent of control
[19] = Growth inhibition of human LOXIMVI cells at 10 uM after 48 hrs by sulforhodamine B assay; conditions: LOX IMVI, values are per cent of control
[20] = test system: NCI-H322M; experiment: Growth inhibition of human NCI-H322M cells at 10 uM after 48 hrs by sulforhodamine B assay; conditions: values are per cent of control
[21] = Growth inhibition of human Caki1 cells at 10 uM after 48 hrs by sulforhodamine B assay; conditions: CAKI-1, 48 h, values are per cent of control
[22] = test system: SK-MEL-5; experiment: Growth inhibition of human SK-MEL-5 cells at 10 uM after 48 hrs by sulforhodamine B assay; conditions: SK-MEL-5, 48 h, values are per cent of control
[23] = test system: NCI-H460; experiment: Growth inhibition of human NCI-H460 cells at 10 uM after 48 hrs by sulforhodamine B assay; conditions: NCI-H460, 48 h, values are per cent of control
[24] = Growth inhibition of human SF539 cells at 10 uM after 48 hrs by sulforhodamine B assay; conditions: SF-539, 48 h, values are per cent of control
[25] = test system: A498; experiment: Growth inhibition of human A498 cells at 10 uM after 48 hrs by sulforhodamine B assay; conditions: A498, 48 h, values are per cent of control
[26] = test system: KM12; experiment: Growth inhibition of human KM12 cells at 10 uM after 48 hrs by sulforhodamine B assay; conditions: KM12, 48 h, values are per cent of control
[27] = Growth inhibition of human HCT15 cells at 10 uM after 48 hrs by sulforhodamine B assay; conditions: HCT-15, 48 h, values are per cent of control
[28] = test system: 786-0; experiment: Growth inhibition of human 786-0 cells at 10 uM after 48 hrs by sulforhodamine B assay; conditions: 786-0, 48 h, values are per cent of control
[29] = test system: SR; experiment: Growth inhibition of human SR cells at 10 uM after 48 hrs by sulforhodamine B assay; conditions: values are per cent of control
[30] = test system: K562; experiment: Growth inhibition of human K562 cells at 10 uM after 48 hrs by sulforhodamine B assay; conditions: K562, 48 h, values are per cent of control
[31] = test system: SK-MEL-2; experiment: Growth inhibition of human SK-MEL-2 cells at 10 uM after 48 hrs by sulforhodamine B assay; conditions: SK-MEL-2, 48 h, values are per cent of control
[32] = Growth inhibition of human OVCAR5 cells at 10 uM after 48 hrs by sulforhodamine B assay; conditions: OVCAR-5, 48 h, values are per cent of control
[33] = Growth inhibition of human UO31 cells at 10 uM after 48 hrs by sulforhodamine B assay; conditions: UO-31, 48 h, values are per cent of control
[34] = Growth inhibition of human Hs 578T cells at 10 uM after 48 hrs by sulforhodamine B assay; conditions: values are per cent of control
[35] = test system: ACHN; experiment: Growth inhibition of human ACHN cells at 10 uM after 48 hrs by sulforhodamine B assay; conditions: values are per cent of control
[36] = test system: MDA-MB-231; experiment: Growth inhibition of human MDA-MB-231 cells at 10 uM after 48 hrs by sulforhodamine B assay; conditions: MDA-MB-231, 48 h, values are per cent of control
[37] = test system: NCI-H23; experiment: Growth inhibition of human NCI-H23 cells at 10 uM after 48 hrs by sulforhodamine B assay; conditions: NCI-H23, 48 h, values are per cent of control
[38] = test system: M14; experiment: Growth inhibition of human M14 cells at 10 uM after 48 hrs by sulforhodamine B assay; conditions: M14, 48 h, values are per cent of control
[39] = Growth inhibition of human BT549 cells at 10 uM after 48 hrs by sulforhodamine B assay; conditions: BT-549, 48 h, values are per cent of control
[40] = test system: SK-MEL-28; experiment: Growth inhibition of human SK-MEL-28 cells at 10 uM after 48 hrs by sulforhodamine B assay; conditions: SK-MEL-28, 48 h, values are per cent of control

COc1ccc(/C(C#N)=C/c2ccc3c(c2)OCCO3)cc1
growth, % of control at 10 µM [1]: 77.1%
growth, % of control at 10 µM [2]: 53.7%
growth, % of control at 10 µM [3]: 38.8%
growth, % of control at 10 µM [4]: 84.7%
growth, % of control at 10 µM [5]: 28.8%
growth, % of control at 10 µM [6]: 77.3%
growth, % of control at 10 µM [7]: 50.5%
growth, % of control at 10 µM [8]: -29.8%
growth, % of control at 10 µM [9]: 41.5%
growth, % of control at 10 µM [10]: 72.1%
growth, % of control at 10 µM [11]: 61.1%
growth, % of control at 10 µM [12]: 66.7%
growth, % of control at 10 µM [13]: 21.8%
growth, % of control at 10 µM [14]: 83.3%
growth, % of control at 10 µM [15]: 81.2%
growth, % of control at 10 µM [16]: 94.6%
growth, % of control at 10 µM [17]: 68.3%
growth, % of control at 10 µM [18]: 71.3%
growth, % of control at 10 µM [19]: 56.7%
growth, % of control at 10 µM [20]: 77.5%
growth, % of control at 10 µM [21]: 64.2%
growth, % of control at 10 µM [22]: 45%
growth, % of control at 10 µM [23]: 33.4%
growth, % of control at 10 µM [24]: 63.7%
growth, % of control at 10 µM [25]: 70.9%
growth, % of control at 10 µM [26]: 27.8%
growth, % of control at 10 µM [27]: 43.4%
growth, % of control at 10 µM [28]: 80.2%
growth, % of control at 10 µM [29]: -1.3%
growth, % of control at 10 µM [30]: 18.7%
growth, % of control at 10 µM [31]: 36%
growth, % of control at 10 µM [32]: 88%
growth, % of control at 10 µM [33]: 73.2%
growth, % of control at 10 µM [34]: 79.6%
growth, % of control at 10 µM [35]: 87.7%
growth, % of control at 10 µM [36]: 68.4%
growth, % of control at 10 µM [37]: 78.3%
growth, % of control at 10 µM [38]: 38.5%
growth, % of control at 10 µM [39]: 56.6%
growth, % of control at 10 µM [40]: 75.3%

Source: ChEMBL document CHEMBL3792365, “Dioxol and dihydrodioxin analogs of 2- and 3-phenylacetonitriles as potent anti-cancer agents with nanomolar activity against a variety of human cancer cells” (2016)
